Data from EP0343268A1, “Pharmaceutical composition and process for preparing the same” (BIOGAL GYOGYSZERGYAR, priority 1988, dated 1989).

Key:
[1] = Single-ingredient treatment of patients (steroid alone; sulfhydryl compound solution alone); assay type: in vivo; settings: aqueous solutions (pH 7.0±0.2) of 3 to 19%, preferably 5 to 15%
Description: (§1) Several compositions according to the invention were also studied with omitting one active ingredient of the composition in order to support the progressive character of the multi-active-component type composition according to the invention. These experiments led to the following results.
An objective improvement was observed only in those cases involving large eardrum defects, strong hyperaemia and significant mucous membrane hypertrophy of the tympanic cavity as well as in the cases of external eczematous otitis (otitis externa ekzematosa).
The dilution of the discharge was not observed during the use,however, the amount of the discharge was somewhat reduced in spite of the decrease of its viscosity. The discharge, which was coherent and mucous in character, rather took the form of a precipitate under effect of the treatment by an acetylcysteine solution.

[2] = cited from earlier work
[3] = cited from earlier work; remark: listed apart in the source
[4] = cited from earlier work; remark: listed apart in the source
[5] = test system: several gram-positive and gram-negative bacteria such as Pseudomonas aeruginosa; settings: in vitro conditions; cited from earlier work
[6] = In vitro mucolytic effect on ear discharges
[7] = test system: chronic mesotympanic otitis; test: Single-ingredient treatment of patients with chronic mesotympanic otitis; assay type: in vivo; settings: 1% solution
Description: as §1

external otitis = test: Single-ingredient treatment of patients with external otitis; assay type: in vivo; settings: 1% solution
Description: as §1

[8] = in the presence of sulfhydryl-containing compounds, particularly acetylcysteine; cited from earlier work
[9] = test system: pathogenic microorganisms occurring in the discharges of patients suffering from chronic otitis (otitis media chronica); test: Treatment of ear discharges by antibacterial agents (sensitivity of the pathogens); assay type: cell-based
Protocol: In the Department for Qtorhinolaryngology of the Medical University of Debrecen, adult and child patients were examined to identify the types of pathogenic microorganisms occurring in the discharges of patients suffering from chronic otitis (otitis media chronica); the discharges of 510 patients were analyzed for the bacterial infection.

[10] = number of cases, total number of the examinations 510

CC(=O)N[C@@H](CS)C(=O)O [acetylcysteine, N-acetyl-L-cysteine]
inflammatory symptomes [1]: moderated
viscosity of the discharge [1]: advantageously influenced
LD₅₀ in dogs [2]: 1000 mg/kg of body-weight
LD₅₀ in rats [3]: 6000 mg/kg of body-weight
LD₅₀ in mice [4]: 3000 mg/kg of body-weight
effect with several antibiotics [5]: synergistic effect

N[C@@H](CCC(=O)N[C@@H](CS)C(=O)NCC(=O)O)C(=O)O [glutathione]
mucolytic effect [6]: a mucolytic effect can also be shown

O[C@H](CS)[C@@H](O)CS [dithioerythritol]
mucolytic effect [6]: a mucolytic effect can also be shown

NC[C@H]1O[C@H](O[C@H]2[C@H](O)[C@@H](O[C@H]3O[C@H](CO)[C@@H](O)[C@H](N)[C@H]3O)[C@H](N)C[C@@H]2N)[C@H](N)C[C@@H]1O [Tobramycin]
substantial improvement of the pathological processes [7]: about 60 % of patients
substantial improvement of the pathological processes (external otitis): ≤ 40%
absorption from the stomach [8]: not disadvantageously influenced

O=C(O)C(S)C(S)C(=O)O (stereo not shown) [dimercaptosuccinate]
mucolytic effect [6]: a mucolytic effect can also be shown

CC[C@H]1OC(=O)[C@H](C)[C@@H](O[C@H]2C[C@@](C)(OC)[C@@H](O)[C@H](C)O2)[C@H](C)[C@@H](O[C@@H]2O[C@H](C)C[C@H](N(C)C)[C@H]2O)[C@](C)(O)C[C@@H](C)C(=O)[C@H](C)[C@@H](O)[C@]1(C)O [Erythromycin]
absorption from the stomach [8]: not disadvantageously influenced

CC(C)(CO)[C@@H](O)C(=O)NCCC(=O)NCCS [pantetheine]
mucolytic effect [6]: a mucolytic effect can also be shown

C[C@H]1c2cccc(O)c2C(O)=C2C(=O)[C@]3(O)C(O)=C(C(N)=O)C(=O)[C@@H](N(C)C)[C@@H]3[C@@H](O)[C@@H]21 [doxycyclin]
absorption from the stomach [8]: not disadvantageously influenced

CC1(C)S[C@@H]2[C@H](NC(=O)[C@H](N)c3ccc(O)cc3)C(=O)N2[C@H]1C(=O)O [amoxicillin]
absorption from the stomach [8]: not disadvantageously influenced

Neomycin
absorption from the stomach [8]: not disadvantageously influenced

Penicillin
A = therapeutically active (sensitive) [9, 10]: 67
M = moderately active [9, 10]: 22
R = inactive (resistant) [9, 10]: 218
Act. = activity % ([9]; share of examined cases moderately active or active): 29.4%

N[C@@H](CSCC(=O)O)C(=O)O [carbocysteine]
mucolytic effect [6]: a mucolytic effect can also be shown
